Columns and labels:
Assay type in all cases: in vivo
[1] = system: foxtail, green (green foxtail, Setaria viridis); test: Test C pre-/postemergence: foxtail, green
Outline: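 Visual injury scored 0–100 (100 = complete control) against untreated controls after 13–15 greenhouse days. Surfactant-containing solvent formulations applied either to soil after sowing (loam/sand) or over 1- to 4-leaf plants, 2–18 cm tall.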

[2] = system: goosegrass (Eleusine indica); test: Test C pre-/postemergence: goosegrass
From the text: Seeds of plant species selected from blackgrass (Alopecurus myosuroides), bromegrass, downy (downy bromegrass, Bromus tectorum), foxtail, green (green foxtail, Setaria viridis), ryegrass, Italian (Italian ryegrass, Lolium multiflorum), winter wheat (Triticum aestivum), wild oat (Avena fatua), galium (catchweed bedstraw, Galium aparine), bermudagrass (Cynodon dactylon), surinam grass (Brachiaria decumbens), cocklebur (common cocklebur, Xanthium strumarium), corn (Zea mays), large crabgrass (Digitaria sanguinalis), woolly cupgrass (Eriochloa villosa), foxtail, giant (giant foxtail, Setaria faberii), goosegrass (Eleusine indica), johnsongrass (Sorghum halepense), kochia (Kochia scoparia), lambsquarters (Chenopodium album), morningglory (Ipomoea coccinea), nightshade (eastern black nightshade, Solanum ptycanthum), nutsedge, yellow (yellow nutsedge, Cyperus esculentus), pigweed (Amaranthus retroflexus), ragweed (common ragweed, Ambrosia elation), soybean (Glycine max), common (oilseed) sunflower (Helianthus annuus), Russian thistle (Salsola kali) and velvetleaf (Abutilon theophrasti) were planted into a blend of loam soil and sand and treated preemergence with test chemicals formulated in a non-phytotoxic solvent mixture which included a surfactant.
(§1) At the same time, plants selected from these crop and weed species and also barley (winter barley, Hordeum vulgare), canarygrass (Phalaris minor), chickweed (common chickweed, Stellaria media) windgrass (Apera spica-venti) and deadnettle (henbit deadnettle, Lamium amplexicaule) were planted in pots containing Redi-Earth® planting medium (Scotts Company, 14111 Scottslawn Road, Marysville, Ohio 43041) comprising spaghnum peat moss, vermiculite, wetting agent and starter nutrients and treated with postemergence applications of test chemicals formulated in the same manner. Plants ranged in height from 2 to 18 cm (1- to 4-leaf stage) for postemergence treatments.
(§2) Treated plants and controls were maintained in a greenhouse for 13 to 15 days, after which time all species were compared to controls and visually evaluated. Plant response ratings, summarized in Table C, are based on a scale of 0 to 100 where 0 is no effect and 100 is complete control. A dash (-) response means no test result.

[3] = system: barley (winter barley, Hordeum vulgare); test: Test C postemergence: barley
From the text: as §1, §2

[4] = system: bluegrass (annual bluegrass, Poa annua); test: Test D pre-/postemergence: bluegrass
Outline: (§3)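 Applied as a non-phytotoxic solvent formulation with surfactant, compounds were tested preemergence in silt loam and postemergence on seedlings 2 to 18 cm high in peat-vermiculite medium. Evaluation was visual, 0 meaning no effect and 100 complete control, at 14 to 21 days.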

[5] = system: field violet (Viola arvensis); test: Test D pre-/postemergence: field violet; settings: Postemergence; for Plant response rating, Field Violet: scale 0 to 100
From the text: Seeds of plant species selected from bluegrass (annual bluegrass, Poa annua), blackgrass (Alopecurus myosuroides), canarygrass (Phalaris minor), chickweed (common chickweed, Stellaria media), galium (catchweed bedstraw, Galium aparine), bromegrass, downy (downy bromegrass, Bromus tectorum), field poppy (Papaver rhoeas), field violet (Viola arvensis), foxtail, green (green foxtail, Setaria viridis), deadnettle (henbit deadnettle, Lamium amplexicaule), ryegrass, Italian (Italian ryegrass, Lolium multiflorum), kochia (Kochia scoparia), lambsquarters (Chenopodium album), oilseed rape (Brassica napus), pigweed (Amaranthus retroflexus), Russian thistle (Salsola iberica), chamomile (scentless chamomile, Matricaria inodora), speedwell (bird's-eye speedwell, Veronica persica), barley, spring (spring barley, Hordeum vulgare), wheat, spring (spring wheat, Triticum aestivum), buckwheat, wild (wild buckwheat, Polygonum convolvulus), mustard, wild (wild mustard, Sinapis arvensis), oat, wild (wild oat, Avena fatua), radish, wild (wild radish, Raphanus raphanistrum), windgrass (Apera spica-venti), barley, winter (winter barley, Hordeum vulgare), and wheat, winter (winter wheat, Triticum aestivum) were planted into a silt loam soil and treated preemergence with test chemicals formulated in a non-phytotoxic solvent mixture which included a surfactant. At the same time, these same crop and weed species were planted in pots containing the planting medium comprising spaghnum peat moss, vermiculite, wetting agent and starter nutrients and treated with postemergence applications of the test chemicals formulated in the same manner. Plants ranged in height from 2 to 18 cm (1- to 4-leaf stage).
as §2, with “controlled growth environment” for “greenhouse”, “14” for “13”, “21 days” for “15 days,”, “D,” for “C,”

[6] = system: Russian thistle (Salsola iberica); test: Test D pre-/postemergence: Russian thistle
Outline: as §3

[7] = system: wheat, winter (winter wheat, Triticum aestivum); test: Test D pre-/postemergence: wheat, winter
Outline: as §3

[8] = Postemergence, 31 g ai/ha, scale 0 to 100 (0 no effect, 100 complete control)
[9] = Postemergence, 62 g ai/ha, scale 0 to 100 (0 no effect, 100 complete control)
[10] = Postemergence, 125 g ai/ha, scale 0 to 100, 0 no effect, 100 complete control
[11] = Postemergence, 250 g ai/ha, scale 0 to 100
[12] = 31 g ai/ha, scale 0 to 100 (0 no effect, 100 complete control)
[13] = 62 g ai/ha, scale 0 to 100 (0 no effect, 100 complete control)
[14] = 125 g ai/ha, scale 0 to 100, 0 no effect, 100 complete control
[15] = Postemergence, 250 g ai/ha, scale 0 to 100 (0 no effect, 100 complete control)
[16] = Postemergence, 16 g ai/ha, scale 0 to 100
[17] = 250 g ai/ha, scale 0 to 100 (0 no effect, 100 complete control)
[18] = Preemergence, 31 g ai/ha, scale of 0 to 100, 0 is no effect, 100 is complete control
[19] = Preemergence, 62 g ai/ha, scale of 0 to 100, 0 is no effect, 100 is complete control
[20] = Preemergence, 125 g ai/ha, scale 0 to 100, 0 no effect, 100 complete control
[21] = Preemergence, 250 g ai/ha, scale 0 to 100, 0 no effect, 100 complete control
[22] = Postemergence, 8 g ai/ha, scale 0 to 100
[23] = Preemergence, 31 g ai/ha, scale 0 (no effect) to 100 (complete control)
[24] = Preemergence, 16 g ai/ha, scale 0 to 100 (0 no effect, 100 complete control)
[25] = Preemergence, 31 g ai/ha, scale 0 to 100 (0 no effect, 100 complete control)
[26] = Preemergence, 62 g ai/ha, scale 0 to 100
[27] = Preemergence, 125 g ai/ha, scale 0 to 100
[28] = Preemergence, 250 g ai/ha, scale 0 to 100

Cc1nn(-c2ccnc(C(F)(F)F)c2)nc1Cc1ccnc(C(F)(F)F)c1 [Compound 137]
Plant response rating, Foxtail, Green [1, 8]: 80 | Plant response rating, Foxtail, Green [1, 9]: 85 | Plant response rating, Foxtail, Green [1, 10]: 95 | Plant response rating, Foxtail, Green [1, 11]: 95 | Plant response rating, Goosegrass [2, 8]: 20 | Plant response rating, Goosegrass [2, 9]: 25 | Plant response rating, Goosegrass [2, 10]: 65 | Plant response rating, Barley [3, 12]: 10 | Plant response rating, Barley [3, 13]: 10 | Plant response rating, Barley [3, 14]: 30 | Plant response rating, Barley ([3]; 250 g ai/ha, scale 0 to 100): 35 | Plant response rating: Bluegrass [4, 8]: 20 | Plant response rating: Bluegrass [4, 9]: 40 | Plant response rating: Bluegrass [4, 10]: 80 | Plant response rating: Bluegrass [4, 15]: 90 | Plant response rating, Bluegrass [4, 16]: 5 | Plant response rating: Field Violet [5, 12]: 70 | Plant response rating: Field Violet [5, 13]: 85 | Plant response rating: Field Violet [5, 14]: 90 | Plant response rating: Field Violet [5, 17]: 95 | Plant response rating, Field Violet ([5]; 16 g ai/ha): 50 | Plant response rating: Russian Thistle [6, 9]: 85 | Plant response rating: Russian Thistle [6, 10]: 85 | Plant response rating: Russian Thistle [6, 15]: 90 | Plant response rating, Russian Thistle [6, 16]: 30 | Plant response rating: Wheat, Winter [7, 8]: 5 | Plant response rating: Wheat, Winter [7, 9]: 10 | Plant response rating: Wheat, Winter [7, 10]: 15 | Plant response rating: Wheat, Winter [7, 15]: 20 | Plant response rating, Wheat, Winter [7, 16]: 5

Cc1nn(-c2ccc(F)c(F)c2)nc1Oc1ccnc(C(F)(F)F)c1 [Compound 145]
Plant response rating, Foxtail, Green [1, 8]: 98 | Plant response rating, Foxtail, Green [1, 9]: 100 | Plant response rating, Foxtail, Green [1, 10]: 100 | Plant response rating, Foxtail, Green [1, 11]: 100 | Plant response rating, Foxtail, Green [1, 18]: 90 | Plant response rating, Foxtail, Green [1, 19]: 90 | Plant response rating, Foxtail, Green [1, 20]: 90 | Plant response rating, Foxtail, Green [1, 21]: 90 | Plant response rating, Goosegrass [2, 8]: 25 | Plant response rating, Goosegrass [2, 9]: 35 | Plant response rating, Goosegrass [2, 10]: 70 | Plant response rating, Goosegrass [2, 11]: 80 | Plant response rating, Goosegrass [2, 18]: 98 | Plant response rating, Goosegrass [2, 19]: 100 | Plant response rating, Goosegrass [2, 20]: 100 | Plant response rating, Goosegrass [2, 21]: 100 | Plant response rating, Barley [3, 12]: 15 | Plant response rating, Barley [3, 13]: 20 | Plant response rating, Barley [3, 14]: 35 | Plant response rating, Barley ([3]; 250 g ai/ha, scale 0 to 100): 45 | Plant response rating: Bluegrass [4, 8]: 20 | Plant response rating: Bluegrass [4, 9]: 25 | Plant response rating: Bluegrass [4, 10]: 40 | Plant response rating, Bluegrass [4, 22]: 0 | Plant response rating, Bluegrass [4, 16]: 0 | Plant response rating: Field Violet [5, 12]: 75 | Plant response rating: Field Violet [5, 13]: 95 | Plant response rating: Field Violet [5, 14]: 95 | Plant response rating, Field Violet ([5]; 8 g ai/ha): 70 | Plant response rating, Field Violet ([5]; 16 g ai/ha): 80 | Plant response rating: Russian Thistle [6, 8]: 95 | Plant response rating: Russian Thistle [6, 9]: 98 | Plant response rating: Russian Thistle [6, 10]: 100 | Plant response rating, Russian Thistle [6, 22]: 10 | Plant response rating, Russian Thistle [6, 16]: 40 | Plant response rating: Wheat, Winter [7, 8]: 10 | Plant response rating: Wheat, Winter [7, 9]: 10 | Plant response rating: Wheat, Winter [7, 10]: 10 | Plant response rating, Wheat, Winter [7, 22]: 5 | Plant response rating, Wheat, Winter [7, 16]: 5

CCOc1nn(-c2ccc(F)cc2)nc1Cc1ccnc(C(F)F)c1 [Compound 195]
Plant response rating, Foxtail, Green [1, 8]: 100 | Plant response rating, Foxtail, Green [1, 9]: 100 | Plant response rating, Foxtail, Green [1, 10]: 100 | Plant response rating, Foxtail, Green [1, 15]: 100 | Plant response rating, Foxtail, Green [1, 23]: 90 | Plant response rating, Foxtail, Green [1, 19]: 90 | Plant response rating, Foxtail, Green [1, 20]: 90 | Plant response rating, Foxtail, Green [1, 21]: 90 | Plant response rating, Goosegrass [2, 8]: 50 | Plant response rating, Goosegrass [2, 9]: 50 | Plant response rating, Goosegrass [2, 10]: 60 | Plant response rating, Goosegrass [2, 15]: 80 | Plant response rating, Goosegrass [2, 23]: 98 | Plant response rating, Goosegrass [2, 19]: 100 | Plant response rating, Goosegrass [2, 20]: 100 | Plant response rating, Goosegrass [2, 21]: 100 | Plant response rating, Barley [3, 12]: 15 | Plant response rating, Barley [3, 13]: 20 | Plant response rating, Barley [3, 14]: 35 | Plant response rating, Barley ([3]; 250 g ai/ha, scale 0 to 100): 35 | Plant response rating: Bluegrass [4, 8]: 20 | Plant response rating: Bluegrass [4, 9]: 40 | Plant response rating: Bluegrass [4, 10]: 60 | Plant response rating: Bluegrass [4, 15]: 80 | Plant response rating, Bluegrass [4, 16]: 10 | Plant response rating, Bluegrass [4, 24]: 0 | Plant response rating, Bluegrass [4, 25]: 10 | Plant response rating, Bluegrass [4, 26]: 20 | Plant response rating, Bluegrass [4, 27]: 50 | Plant response rating, Bluegrass [4, 28]: 80 | Plant response rating: Field Violet [5, 12]: 70 | Plant response rating: Field Violet [5, 13]: 75 | Plant response rating: Field Violet [5, 14]: 85 | Plant response rating: Field Violet [5, 17]: 95 | Plant response rating, Field Violet ([5]; 16 g ai/ha): 70 | Plant response rating: Russian Thistle [6, 8]: 40 | Plant response rating: Russian Thistle [6, 9]: 80 | Plant response rating: Russian Thistle [6, 10]: 85 | Plant response rating: Russian Thistle [6, 15]: 100 | Plant response rating, Russian Thistle [6, 16]: 15 | Plant response rating, Russian Thistle [6, 24]: 0 | Plant response rating, Russian Thistle [6, 25]: 0 | Plant response rating, Russian Thistle [6, 26]: 0 | Plant response rating, Russian Thistle [6, 27]: 0 | Plant response rating, Russian Thistle [6, 28]: 30 | Plant response rating: Wheat, Winter [7, 8]: 10 | Plant response rating: Wheat, Winter [7, 9]: 10 | Plant response rating: Wheat, Winter [7, 10]: 25 | Plant response rating: Wheat, Winter [7, 15]: 40 | Plant response rating, Wheat, Winter [7, 16]: 5 | Plant response rating, Wheat, Winter [7, 24]: 0 | Plant response rating, Wheat, Winter [7, 25]: 0 | Plant response rating, Wheat, Winter [7, 26]: 0 | Plant response rating, Wheat, Winter [7, 27]: 0 | Plant response rating, Wheat, Winter [7, 28]: 10

Reference: patent US9302999B2, “Substituted triazoles as herbicides” (E. I. DU PONT DE NEMOURS AND COMPANY, priority 2012, dated 2016)
